Here are results for one molecule from patent US20220119446A1, “BIOMARKERS AND TREATMENT OF NEURONAL INJURY AND NEURODEGENERATION” (Board of Supervisons of Louisiana State University and …, priority 2018, published 2022).

“Also recorded” adds a separate entry of the source.

The subject of experiment [1] is Wnt5a. The experiment is described as follows: SYBR green real-time PCR of Wnt5a mRNA in human primary RPE (hpRPE) cells under UOS. The class given is cell-based. On the procedure:
ARPE-19 cells, can be plated and grown in DMEM/F-12 containing 10% FBS and 1× penicillin/streptomycin at 37° C., 5% CO2, 99% relative humidity for 24 h. […] 15-LOX-1 deficient cells can be maintained in the same medium as ARPE-19 with the addition of 500 μg/mL Geneticin (Life Technologies Corporation, Carlsbad, Calif.). Transfection can be performed in all cases using Lipofectamine 2000 (Life Technologies Corporation, Carlsbad, Calif.) following the manufacturer's recommendations. […] Experiments with transfection efficiency that yielded less than 80% can be discarded. For siRNA, we used 6 μl of Lipofectamine 2000 per 50 pmol of siRNA per mL of incubation medium, and, for plasmids, we used 6 μl of Lipofectamine 2000 per 2 μg of plasmid per mL of incubation medium. Cells can be incubated for 5 hours at 37° C., 5% CO2 and 99% relative humidity. […] When siRNA/plasmid co-transfection is required, siRNA and plasmid-carrying transfection mixes can be prepared separately and added one after the other in the same well. Oxidative stress treatments can be performed using 600 (ARPE-19) or 1600 (hRPE) μM H2O2, along with 10 ng/mL TNFα, for the required time indicated in each experiment. The treatment we used employed the low serum (0.5% serum) without hFGF. Treatment to induce uncompensated oxidative stress (UOS) can be performed after 8 hours of low-serum medium incubation unless specifically noted. […]
Background: Real-time PCR tracks product formation cycle by cycle.

Experiment [2] concerns Wnt5a promoter A. The experiment can be described thus: ChIP assay of cRel binding to Wnt5a promoter A with real-time PCR. The class given is cell-based, human. The following applies: for cRel bound to genomic DNA, amplicon 3: RPE cells undergoing UOS, NPD1 added. The source says:
Based on the regions found to bind NF-κB members (Table 4), we designed four sets of primers that bound in the proximity or within the regions of interest to perform SYBR green-based real-time PCR detection (FIG. 2, D-F and Table 3). FIGS. 2, D and F and Table 5, also show regions of high probability for methylation, a mechanism for blocking Wnt5a transcription (Vaidya et al. 2016). Micrococcal […] digested genomic DNA fragments from UOS or UOS-plus-NPD1-treated RPE cells, +/−rWnt5a, were pulled down by an antibody against cRel and used to test the four sets of primers. […] Methylation of Region 1 may occur since it was predicted by the Methprimer software (Table 5). […] The results obtained for amplicon 3, indicate competition between the Wnt5a-activated p65 and NPD1-activated cRel (FIG. 2E).
The chromatin immunoprecipitation assay can be performed using SimpleChIP® Plus Enzymatic Chromatin IP Kit (Cell Signaling Technology, Boston, Mass.) following the manufacturer's recommendations including ChIP validated cRel antibody. Positive control Histone H3 antibody and normal serum can be provided by a kit, as well as control primers for human RPL30 Exon 3. Primers A1 to 4 can be designed using Primer-Blast (NCBI, Bethesda, Md.)((Ye et al. 2012) and are depicted in Table 5. The immunoprecipitated samples real-time PCR values can be standardized using 10% of the input chromatin preparation using primers A1, A2, and A3 pooled values and RPL30 Exon 3 values.
The chromatin immunoprecipitation assay was performed using SimpleChIP® Plus Enzymatic Chromatin IP Kit (Cell Signaling Technology, Boston, Mass., USA) following the manufacturer's recommendations including ChIP validated cREL antibody. Positive control Histone H3 antibody and normal serum was provided by the kit, as well as control primers for human RPL30 Exon 3. Primers A1 to 4 were designed using Primer-Blast at NCBI platform (Ye et al., 2012) and are depicted in Table S5. The immunoprecipitated samples real-time PCR values were standardized using 10% of the input chromatin preparation using primers A1, A2, and A3 pooled values and RPL30 Exon 3 values.

Turning to `CC/C=C\C[C@H](O)\C=C/C=C/C=C/[C@H](O)C/C=C\C/C=C\CCC(=O)O` [NPD1, 10R,17S-dihydroxy-docosa-4Z,7Z,11E,13E,15Z,19Z-hexaenoic acid], the “Wnt5a transcription (mRNA)” value in experiment [1] (hpRPE cells, UOS 1,600 μM H2O2 and 10 ng/ml TNFα, 6 hours) is given as “down regulated Wnt5a transcription; also recorded: decreased Wnt5a expression”. The “increase of Wnt5a expression on cRel silencing” value in experiment [1] (hpRPE, UOS plus NPD1, 12-fold in control, 8-fold in UOS) stood at 4 fold. For the same molecule, the “cRel bound to genomic DNA, amplicon 2 (Region 3 and 4)” value in experiment [2] (RPE cells under UOS, NPD1 100 nM) was “twice the amount of cRel bound”. For the same molecule, the “cRel binding, amplicon 4” value in experiment [2] (RPE cells undergoing UOS in the presence of rWnt5a) is “restored the cRel binding to control levels”. The “cRel bound to genomic DNA, amplicon 3” value in experiment [2] (Wnt5a present) is 10 fold; in experiment [2] (absence of Wnt5a) it was “more than 20 fold”. Moreover, in experiment [2] (RPE cells, UOS or UOS plus NPD1, +/−rWnt5a), the “cRel binding to genomic DNA, amplicon A1” value was “no differences between treatments”.
